Source: PubChem BioAssay AID328 (DTP/NCI, 2004)
Values joined by “and” are separate entries in the source; they are usually repeats but may differ in a detail not shown here. Identical values can stand only once. Toxic doses and inconclusive results are not listed.

System: BDF1 mice, P388 leukemia ip, median survival T/C
Assay: NCI In Vivo Anticancer Drug Screen. Data for tumor model P388 Leukemia (intraperitoneal) in B6D2F1 (BDF1) mice
Details: endpoint: median survival time, higher = longer survival
Method in brief: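 Compound-treated tumour-bearing mice were compared with vehicle-treated controls. Survival was recorded, and the value is the treated-group measurement divided by the control-group measurement (T/C).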

[1] = dose: 100.0 mg/kg/injection, schedule: Q04DX003 (ip), vehicle: saline
[2] = dose: 200.0 mg/kg/injection, schedule: Q04DX003 (ip), vehicle: saline
[3] = dose: 100.0 mg/kg/injection, schedule: Q01DX009 (ip), vehicle: saline with Tween-80
[4] = dose: 200.0 mg/kg/injection, schedule: Q01DX009 (ip), vehicle: saline with Tween-80
[5] = dose: 100.0 mg/kg/injection, schedule: Q04DX003 (ip), vehicle: Klucel (hydroxypropylcellulose) (HPC)
[6] = dose: 200.0 mg/kg/injection, schedule: Q04DX003 (ip), vehicle: Klucel (hydroxypropylcellulose) (HPC)
[7] = dose: 50.0 mg/kg/injection, schedule: Q01DX009 (ip), vehicle: saline with Tween-80
[8] = dose: 100.0 mg/kg/injection, schedule: Q04DX003 (ip), vehicle: saline with Tween-80
[9] = dose: 25.0 mg/kg/injection, schedule: Q01DX009 (ip), vehicle: saline with Tween-80

SMILES: COc1cc([C@@H]2c3cc4c(cc3[C@H](OC3OC5COC(c6ccccc6)OC5C(O)C3O)[C@H]3COC(=O)[C@H]23)OCO4)cc(OC)c1OC (some centres not stated)
- T/C (dose: 3.1 mg/kg/injection, schedule: Q01DX010 (ip), vehicle: carboxymethylcellulose (CMC)): 180 % of control
- T/C (dose: 6.2 mg/kg/injection, schedule: Q01DX010 (ip), vehicle: carboxymethylcellulose (CMC)): 210 % of control
- T/C (dose: 12.5 mg/kg/injection, schedule: Q01DX010 (ip), vehicle: carboxymethylcellulose (CMC)): 235 % of control
- T/C (dose: 25.0 mg/kg/injection, schedule: Q01DX010 (ip), vehicle: carboxymethylcellulose (CMC)): 270 % of control
- T/C (dose: 50.0 mg/kg/injection, schedule: Q01DX010 (ip), vehicle: carboxymethylcellulose (CMC)): 300 % of control

SMILES: CC1CCCCN1CC(Cl)Cl (configuration not stated)
- T/C (dose: 50.0 mg/kg/injection, schedule: Q01DX009 (ip), vehicle: saline): 122 % of control
- T/C (dose: 50.0 mg/kg/injection, schedule: Q04DX003 (ip), vehicle: saline): 109 % of control
- T/C (dose: 100.0 mg/kg/injection, schedule: Q01DX009 (ip), vehicle: saline): 150 % of control
- T/C [1]: 104 % of control
- T/C [2]: 122 % of control

SMILES: Cc1cc(=O)cc(C)n1C
- T/C [3]: 104 % of control
- T/C [4]: 100 % of control
- T/C (dose: 400.0 mg/kg/injection, schedule: Q01DX009 (ip), vehicle: saline with Tween-80): 100 % of control

SMILES: CCOC(=O)C(C)C(O)(c1ccccc1)c1ccccc1 (configuration not stated)
- T/C [5]: 100 % of control
- T/C [6]: 104 % of control
- T/C (dose: 400.0 mg/kg/injection, schedule: Q04DX003 (ip), vehicle: Klucel (hydroxypropylcellulose) (HPC)): 104 % of control

SMILES: CO[C@H]1CC=C2CCN3CCCc4cc5c(cc4[C@]23C1)OCO5
- T/C (dose: 10.0 mg/kg/injection, schedule: Q01DX009 (ip), vehicle: alcohol): 100 % of control
- T/C (dose: 20.0 mg/kg/injection, schedule: Q01DX009 (ip), vehicle: alcohol): 100 % of control

SMILES: CC(=O)NC(C)C(C)C (configuration not stated)
- T/C [1]: 100 % of control
- T/C [2]: 95 % of control
- T/C (dose: 400.0 mg/kg/injection, schedule: Q04DX003 (ip), vehicle: saline): 100 % of control

SMILES: Cc1c2oc3c(C)ccc(C(=O)NC4C(=O)NC(C(C)C)C(=O)N5CCCC5C(=O)N(C)CC(=O)N(C)C(C(C)C)C(=O)OC4C)c3nc-2c(C(=O)NC2C(=O)NC(C(C)C)C(=O)N3CCCC3C(=O)N(C)CC(=O)N(C)C(C(C)C)C(=O)OC2C)cc1=O (configuration not stated)
- T/C (dose: 0.24 mg/kg/injection, schedule: Q01DX009 (ip), vehicle: saline + alcohol): 97 % of control
- T/C (dose: 0.34 mg/kg/injection, schedule: Q01DX009 (ip), vehicle: saline + alcohol): 101 % of control
- T/C (dose: 0.49 mg/kg/injection, schedule: Q01DX009 (ip), vehicle: saline + alcohol): 100 % of control
- T/C (dose: 0.7 mg/kg/injection, schedule: Q01DX009 (ip), vehicle: saline + alcohol): 112 % of control
- T/C (dose: 1.0 mg/kg/injection, schedule: Q01DX009 (ip), vehicle: saline + alcohol): 106 % of control
- T/C (dose: 1.17 mg/kg/injection, schedule: Q04DX003 (ip), vehicle: saline + alcohol): 107 % of control and 124 % of control
- T/C (dose: 1.7 mg/kg/injection, schedule: Q04DX003 (ip), vehicle: saline + alcohol): 104 % of control
- T/C (dose: 1.94 mg/kg/injection, schedule: Q04DX003 (ip), vehicle: saline + alcohol): 107 % of control
- T/C (dose: 2.4 mg/kg/injection, schedule: Q01DX001 (ip), vehicle: saline + alcohol): 112 % of control
- T/C (dose: 3.4 mg/kg/injection, schedule: Q01DX001 (ip), vehicle: saline + alcohol): 113 % of control
- T/C (dose: 4.9 mg/kg/injection, schedule: Q04DX003 (ip), vehicle: saline + alcohol): 150 % of control
- T/C (dose: 5.4 mg/kg/injection, schedule: Q04DX003 (ip), vehicle: saline + alcohol): 168 % of control
- T/C (dose: 7.0 mg/kg/injection, schedule: Q04DX003 (ip), vehicle: saline + alcohol): 169 % of control
- T/C (dose: 9.0 mg/kg/injection, schedule: Q04DX003 (ip), vehicle: saline + alcohol): 159 % of control and 176 % of control
- T/C (dose: 10.0 mg/kg/injection, schedule: Q01DX001 (ip), vehicle: saline + alcohol): 153 % of control
- T/C (dose: 15.0 mg/kg/injection, schedule: Q04DX003 (ip), vehicle: saline + alcohol): 183 % of control and 193 % of control

SMILES: CCCCOCNc1ncccn1
- T/C [7]: 100 % of control and 105 % of control
- T/C [3]: 98 % of control and 112 % of control
- T/C [4]: 100 % of control

SMILES: OCC1CSC2(CCCCC2)N1 (configuration not stated)
- T/C [7]: 105 % of control
- T/C [3]: 105 % of control
- T/C [4]: 93 % of control

SMILES: O=NN(CCCl)C(=O)Nc1ccc(Cl)cc1
- T/C (dose: 8.2 mg/kg/injection, schedule: Q04DX003 (ip), vehicle: saline with Tween-80): 195 % of control
- T/C (dose: 12.5 mg/kg/injection, schedule: Q04DX003 (ip), vehicle: saline with Tween-80): 195 % of control
- T/C (dose: 18.75 mg/kg/injection, schedule: Q04DX003 (ip), vehicle: saline with Tween-80): 200 % of control

SMILES: C(/C=C/C=C/N1CCCCC1)=[N+]1CCCCC1
- T/C (dose: 0.13 mg/kg/injection, schedule: Q01DX009 (ip), vehicle: saline): 97 % of control
- T/C (dose: 0.25 mg/kg/injection, schedule: Q01DX009 (ip), vehicle: saline): 104 % of control
- T/C (dose: 0.5 mg/kg/injection, schedule: Q01DX009 (ip), vehicle: saline): 89 % of control
- T/C (dose: 1.0 mg/kg/injection, schedule: Q01DX009 (ip), vehicle: saline): 110 % of control

SMILES: COc1cc(C=Nc2cccc(C(F)(F)F)c2)ccc1O
- T/C [5]: 95 % of control
- T/C [6]: 100 % of control

SMILES: CN(C)C(=S)/N=c1\ss/c(=N\C(=S)N(C)C)n1-c1ccccc1
- T/C [7]: 100 % of control
- T/C [3]: 95 % of control
- T/C [4]: 95 % of control

SMILES: CC(=O)Nc1cc(OC(C)=O)n(-c2ccccc2)n1
- T/C (dose: 87.5 mg/kg/injection, schedule: Q01DX009 (ip), vehicle: saline with Tween-80): 97 % of control
- T/C (dose: 175.0 mg/kg/injection, schedule: Q01DX009 (ip), vehicle: saline with Tween-80): 86 % of control
- T/C (dose: 350.0 mg/kg/injection, schedule: Q01DX009 (ip), vehicle: saline with Tween-80): 98 % of control

SMILES: Nc1nc2ccccc2c(=O)n1C(=O)c1ccccc1
- T/C [8]: 93 % of control
- T/C (dose: 200.0 mg/kg/injection, schedule: Q04DX003 (ip), vehicle: saline with Tween-80): 94 % of control
- T/C (dose: 400.0 mg/kg/injection, schedule: Q04DX003 (ip), vehicle: saline with Tween-80): 116 % of control

SMILES: COc1ccc(/C(=C\S(C)(=O)=O)c2cccs2)cc1
- T/C [7]: 88 % of control
- T/C [3]: 91 % of control
- T/C [4]: 105 % of control

SMILES: O/N=C1\CCCc2ccc(F)cc21
- T/C [9]: 100 % of control
- T/C [7]: 106 % of control and 108 % of control
- T/C [3]: 106 % of control
- T/C [4]: 109 % of control and 120 % of control

SMILES: O=c1ccc2ccccc2o1
- T/C (dose: 50.0 mg/kg/injection, schedule: Q01DX010 (ip), vehicle: saline): 100 % of control
- T/C (dose: 100.0 mg/kg/injection, schedule: Q01DX010 (ip), vehicle: saline): 90 % of control
- T/C (dose: 200.0 mg/kg/injection, schedule: Q01DX010 (ip), vehicle: saline): 90 % of control
- T/C (dose: 400.0 mg/kg/injection, schedule: Q01DX010 (ip), vehicle: saline): 95 % of control

SMILES: CNc1ccc(C(=O)O)c(Cl)c1
- T/C (dose: 75.0 mg/kg/injection, schedule: Q04DX003 (ip), vehicle: saline): 100 % of control
- T/C (dose: 150.0 mg/kg/injection, schedule: Q04DX003 (ip), vehicle: saline): 95 % of control
- T/C (dose: 300.0 mg/kg/injection, schedule: Q04DX003 (ip), vehicle: saline): 100 % of control

SMILES: O=C(c1ccccc1)C1CN(C2CCCCC2)C1c1ccccc1 (configuration not stated)
- T/C [9]: 102 % of control
- T/C [7]: 90 % of control
- T/C [3]: 102 % of control
- T/C [4]: 100 % of control

SMILES: CCCCCCOC(CN(C)C)C(Cl)(Cl)Cl (configuration not stated)
- T/C [7]: 124 % of control
- T/C [3]: 107 % of control
- T/C [4]: 116 % of control

SMILES: CCN(CC)CCOc1cc(C)ccc1C(C)C
- T/C [9]: 96 % of control
- T/C (dose: 25.0 mg/kg/injection, schedule: Q04DX003 (ip), vehicle: saline with Tween-80): 109 % of control
- T/C [7]: 111 % of control
- T/C (dose: 50.0 mg/kg/injection, schedule: Q04DX003 (ip), vehicle: saline with Tween-80): 109 % of control
- T/C [3]: 107 % of control
- T/C [8]: 118 % of control

SMILES: Cc1ccc2cc3c(ccc4ccccc43)c3c2c1CC3
- T/C (dose: 7.4 mg/kg/injection, schedule: Q01DX009 (ip), vehicle: saline with Tween-80): 117 % of control
- T/C [9]: 122 % of control
- T/C [7]: 154 % of control
- T/C (dose: 75.0 mg/kg/injection, schedule: Q01DX009 (ip), vehicle: saline with Tween-80): 122 % of control
- T/C (dose: 88.0 mg/kg/injection, schedule: Q04DX003 (ip), vehicle: saline with Tween-80): 118 % of control
- T/C [3]: 162 % of control
- T/C (dose: 132.0 mg/kg/injection, schedule: Q04DX003 (ip), vehicle: saline with Tween-80): 118 % of control
- T/C (dose: 300.0 mg/kg/injection, schedule: Q01DX009 (ip), vehicle: saline with Tween-80): 163 % of control
- T/C (dose: 300.0 mg/kg/injection, schedule: Q04DX003 (ip), vehicle: saline with Tween-80): 118 % of control
